Assay results taken from the supplement of paper PMC10307832.

Experiments:
Experiment in all cases: relative viability (nuclei count vs DMSO), 5 days (fraction); higher = more cells survive
Linsitinib + Luminespib = compound: C[C@]1(O)C[C@@H](c2nc(-c3ccc4ccc(-c5ccccc5)nc4c3)c3c(N)nccn32)C1 [Linsitinib] + CCNC(=O)c1noc(-c2cc(C(C)C)c(O)cc2O)c1-c1ccc(CN2CCOCC2)cc1 [Luminespib] (partner 0.01 µM)
Summary of the method: (§1)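 After 5 days of treatment, lung cancer cells in 1536-well plates were fixed and stained in a single step (final 0.05% Triton X-100, 1% formaldehyde, 1 ug/ml Hoechst) and their nuclei counted on 4× images. Treatment had been applied by pin tool the day after seeding as one drug alone or as a fixed anchor-drug dose with five library-drug doses (not always all listed) in √10 steps. Relative viability is the nuclei count of treated wells divided by that of vehicle wells, and values are medians of duplicate plates.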

Linsitinib + AZD7762 = compound: C[C@]1(O)C[C@@H](c2nc(-c3ccc4ccc(-c5ccccc5)nc4c3)c3c(N)nccn32)C1 [Linsitinib] + NC(=O)Nc1cc(-c2cccc(F)c2)sc1C(=O)N[C@H]1CCCNC1 [AZD7762] (partner 0.2 µM)
Summary of the method: as §1

Ispinesib + Bortezomib = compound: Cc1ccc(C(=O)N(CCCN)[C@@H](c2nc3cc(Cl)ccc3c(=O)n2Cc2ccccc2)C(C)C)cc1 [Ispinesib] + CC(C)C[C@H](NC(=O)[C@H](Cc1ccccc1)NC(=O)c1cnccn1)B(O)O [Bortezomib] (partner 0.002 µM)
Summary of the method: as §1

Ispinesib + Lapatinib = compound: Cc1ccc(C(=O)N(CCCN)[C@@H](c2nc3cc(Cl)ccc3c(=O)n2Cc2ccccc2)C(C)C)cc1 [Ispinesib] + CS(=O)(=O)CCNCc1ccc(-c2ccc3ncnc(Nc4ccc(OCc5cccc(F)c5)c(Cl)c4)c3c2)o1 [Lapatinib] (partner 2 µM)
Summary of the method: as §1

Cell Line	relative viability (Linsitinib + Luminespib; first compound 0.01 µM)	relative viability (Linsitinib + Luminespib; first compound 0.03162 µM)	relative viability (Linsitinib + Luminespib; first compound 0.1 µM)	relative viability (Linsitinib + Luminespib; first compound 0.3162 µM)	relative viability (Linsitinib + Luminespib; first compound 1 µM)	relative viability (Linsitinib + AZD7762; first compound 0.01 µM)	relative viability (Linsitinib + AZD7762; first compound 0.03162 µM)	relative viability (Linsitinib + AZD7762; first compound 0.1 µM)	relative viability (Linsitinib + AZD7762; first compound 0.3162 µM)	relative viability (Linsitinib + AZD7762; first compound 1 µM)	relative viability (Ispinesib + Bortezomib; first compound 0.001 µM)	relative viability (Ispinesib + Bortezomib; first compound 0.003162 µM)	relative viability (Ispinesib + Bortezomib; first compound 0.01 µM)	relative viability (Ispinesib + Bortezomib; first compound 0.03162 µM)	relative viability (Ispinesib + Bortezomib; first compound 0.1 µM)	relative viability (Ispinesib + Lapatinib; first compound 0.001 µM)	relative viability (Ispinesib + Lapatinib; first compound 0.003162 µM)	relative viability (Ispinesib + Lapatinib; first compound 0.01 µM)	relative viability (Ispinesib + Lapatinib; first compound 0.03162 µM)	relative viability (Ispinesib + Lapatinib; first compound 0.1 µM)
NCI-H1975	0.24	0.263	0.281	0.302	0.127	0.697	0.673	0.685	0.685	0.562	0.471	0.437	0.331	0.19	0.261	0.931	0.907	0.71	0.302	0.179
NCI-H2126	0.883	0.841	0.912	0.838	0.522	0.972	0.997	1.05	0.871	0.887	1.1	1.14	1.24	1.14	0.773	0.719	0.804	0.846	0.781	0.534
NCI-H2087	0.167	0.169	0.132	0.15	0.142	1.15	1.23	1.38	1.34	1.13	0.852	0.978	1.05	0.477	0.153	0.92	1.04	1.35	0.293	0.182
